Active and inactive are the calls of the source. No cut-off for these calls is given here.
Assays:
HeLa = assay: Cytotoxicity against human HeLa cells assessed as cell growth inhibition at 50 uM incubated for 48 hrs by CCK-8 assay; format: functional, cell-based
A549 = assay: Cytotoxicity against human A549 cells assessed as cell growth inhibition at 50 uM incubated for 48 hrs by CCK-8 assay; format: functional, cell-based
HT-29 = assay: Cytotoxicity against human HT-29 cells assessed as cell growth inhibition at 50 uM incubated for 48 hrs by CCK-8 assay; format: functional, cell-based
MCF7 = assay: Cytotoxicity against human MCF7 cells assessed as cell growth inhibition at 50 uM incubated for 48 hrs by CCK-8 assay; format: functional, cell-based
HepG2 = assay: Cytotoxicity against human HepG2 cells assessed as cell growth inhibition at 50 uM incubated for 48 hrs by CCK-8 assay; format: functional, cell-based
Escherichia coli = assay: Antimicrobial activity against Escherichia coli ATCC35218 assessed as inhibition of microbial growth at 50 uM incubated for 24 hrs by microbroth dilution assay; format: functional, organism-based
Staphylococcus aureus = assay: Antimicrobial activity against Staphylococcus aureus ATCC25923 assessed as inhibition of microbial growth at 50 uM incubated for 24 hrs by microbroth dilution assay; format: functional, organism-based
[1] = Cytotoxicity against male BALB/c mouse Splenocyte cells incubated for 48 hrs by CCK-8 assay; format: toxicity, cell-based; conditions: splenocytes
Splenocyte [2] = assay: Immunosuppressive activity in male BALB/c mouse splenocyte assessed as reduction in LPS-induced B-cell proliferation incubated for 48 hrs by CCK-8 assay; format: functional, cell-based
[3] = Selectivity index, ratio of CC50 for cytotoxicity against male BALB/c mouse Splenocyte cells to IC50 for immunosuppressive activity in male BALB/c mouse splenocyte assessed as reduction in LPS-induced B-cell proliferation; format: toxicity, cell-based; conditions: splenocytes, read-out: Ratio CC50/IC50
Splenocyte [4] = assay: Immunosuppressive activity in male BALB/c mouse splenocyte assessed as reduction in ConA-induced T-cell proliferation incubated for 48 hrs by CCK-8 assay; format: functional, cell-based
[5] = Selectivity index, ratio of CC50 for cytotoxicity against male BALB/c mouse Splenocyte cells to IC50 for immunosuppressive activity in male BALB/c mouse splenocyte assessed as reduction in ConA-induced T-cell proliferation; format: toxicity, cell-based; conditions: splenocytes, read-out: Ratio CC50/IC50

Q: What does the source list for C=C(C)[C@H]1CC[C@@]23CO[C@@](O)(C[C@@]12O)[C@@]1(C)C[C@H]2O[C@]13[C@@H](O)C(=O)[C@H]2C?
A: Activity (HeLa): inactive; Activity (A549): inactive; Activity (HT-29): inactive; Activity (MCF7): inactive; Activity (HepG2): inactive; Activity (Escherichia coli): inactive; Activity (Staphylococcus aureus): inactive

Q: With C=C(C)[C@H]1CC[C@]2(C)[C@@]34CC(=O)[C@@H](C)[C@@H](C[C@]3(C)C(=O)C[C@@]12O)O4 as the molecule, how does the Activity (HeLa) read?
A: inactive

Q: And the Activity (A549)?
A: inactive

Q: And the Activity (HT-29)?
A: inactive

Q: And the Activity (MCF7)?
A: inactive

Q: What about the Activity (HepG2) of the same molecule?
A: inactive

Q: And the Activity (Escherichia coli)?
A: inactive

Q: What about the Activity (Staphylococcus aureus) of the same molecule?
A: inactive

Q: Which results are given for C=C(C)[C@H]1CC[C@@]23CO[C@@](O)(C[C@@]12O)[C@@]1(C)C[C@H]2O[C@]13C(=O)C(O)=C2C?
A: Activity (HeLa): inactive; Activity (A549): inactive; Activity (HT-29): inactive; Activity (MCF7): inactive; Activity (HepG2): inactive; Activity (Escherichia coli): inactive; Activity (Staphylococcus aureus): inactive

Q: With C=C(CO)[C@H]1CC[C@]2(C)[C@@]34CC(=O)[C@@H](C)[C@@H](C[C@]3(C)C(=O)C[C@@]12O)O4 as the molecule, how does the CC50 at 48 h [1] read?
A: > 50 µM

Q: What about the IC50 (Splenocyte [2]) of the same molecule?
A: 3 µM

Q: And the selectivity ratio [3]?
A: > 17

Q: What about the IC50 (Splenocyte [4]) of the same molecule?
A: 19 µM

Q: What about the selectivity ratio [5] of the same molecule?
A: > 2.6

Q: What about the Activity (HeLa) of the same molecule?
A: inactive

Q: And the Activity (A549)?
A: inactive

Q: And the Activity (HT-29)?
A: inactive

Q: And the Activity (MCF7)?
A: inactive

Q: And the Activity (HepG2)?
A: inactive

Q: And the Activity (Escherichia coli)?
A: inactive

Q: And the Activity (Staphylococcus aureus)?
A: inactive

Q: What does the source list for C=C(C)[C@H]1CC[C@@]23CO[C@@]4(O)C(=O)[C@@H](C)CC[C@](C)(C(=O)C[C@@]12O)[C@@]34O?
A: Activity (HeLa): inactive; Activity (A549): inactive; Activity (HT-29): inactive; Activity (MCF7): inactive; Activity (HepG2): inactive; Activity (Escherichia coli): inactive; Activity (Staphylococcus aureus): inactive

Q: Which results are given for C=C(C)[C@H]1CC[C@@]23CO[C@@]4(O)C(=O)C(C)=CC[C@](C)(C(=O)C[C@@]12O)[C@@]34O?
A: Activity (HeLa): inactive; Activity (A549): inactive; Activity (HT-29): inactive; Activity (MCF7): inactive; Activity (HepG2): inactive; Activity (Escherichia coli): inactive; Activity (Staphylococcus aureus): inactive

Q: For C=C(C)[C@H]1CC[C@]2(C)C3=CC(=O)C(C)=CC[C@]3(C)C(=O)C[C@@]12O, which Activity (HeLa) is on record?
A: inactive

Q: What about the Activity (A549) of the same molecule?
A: inactive

Q: And the Activity (HT-29)?
A: inactive

Q: And the Activity (MCF7)?
A: inactive

Q: And the Activity (HepG2)?
A: inactive

Q: And the Activity (Escherichia coli)?
A: inactive

Q: And the Activity (Staphylococcus aureus)?
A: inactive

Q: What does the source list for C=C(C)[C@H]1CC[C@]2(C)[C@@]34C[C@@H](O)[C@@H](C)[C@@H](C[C@]3(C)C(=O)C[C@@]12O)O4?
A: Activity (HeLa): inactive; Activity (A549): inactive; Activity (HT-29): inactive; Activity (MCF7): inactive; Activity (HepG2): inactive; Activity (Escherichia coli): inactive; Activity (Staphylococcus aureus): inactive

Q: Which Activity (HeLa) does the source give for C=C(C)[C@H]1[C@H](O)C[C@]2(C)[C@@]34CC(=O)[C@@H](C)[C@@H](C[C@]3(C)C(=O)C[C@@]12O)O4 here?
A: inactive

Q: And the Activity (A549)?
A: inactive

Q: And the Activity (HT-29)?
A: inactive

Q: What about the Activity (MCF7) of the same molecule?
A: inactive

Q: And the Activity (HepG2)?
A: inactive

Q: What about the Activity (Escherichia coli) of the same molecule?
A: inactive

Q: What about the Activity (Staphylococcus aureus) of the same molecule?
A: inactive

Q: What does the source list for C=C(CO)[C@H]1CC[C@@]2(C)C1=CC(=O)[C@@]1(C)C[C@H]3O[C@@]21CC(=O)[C@H]3C?
A: CC50 at 48 h [1]: > 50 µM; IC50 (Splenocyte [2]): 7.9 µM; selectivity ratio [3]: > 6.3; IC50 (Splenocyte [4]): 20 µM; selectivity ratio [5]: > 2.5; Activity (HeLa): inactive; Activity (A549): inactive; Activity (HT-29): inactive; Activity (MCF7): inactive; Activity (HepG2): inactive; Activity (Escherichia coli): inactive; Activity (Staphylococcus aureus): inactive

Q: For C=C(C)[C@H]1CC[C@]2(C)[C@@]3(O)CC(=O)C(C)=CC[C@]3(C)C(=O)C[C@@]12O, which Activity (HeLa) is on record?
A: inactive

Q: What about the Activity (A549) of the same molecule?
A: inactive

Q: And the Activity (HT-29)?
A: inactive

Q: What about the Activity (MCF7) of the same molecule?
A: inactive

Q: What about the Activity (HepG2) of the same molecule?
A: inactive

Q: And the Activity (Escherichia coli)?
A: inactive

Q: And the Activity (Staphylococcus aureus)?
A: inactive
